From patent US8193235B2, “Compositions and methods for establishing and maintaining stem cells in an undifferentiated state” (University of Kansas, priority 2009, dated 2012) come the findings set out here.

SMILES strings stand for the structures.

Common to all, as to format: cell-based, mouse
Series [1] concerns R1 ES cells. Put plainly: R1 ES cells without LIF and MEF feeder. The procedure: R1 ES Cells. R1 Cells were maintained on MEF feeder in ES-IMDM media supplemented with 15% ES-cell quality serum, 10^5 U/100 ml of LIF. Cells were grown for 3-5 days with change of medium every day. For inducing differentiation in monolayer culture and to determine the effect of Gö6983, cells were cultured at feeder-free condition and without LIF for 7 days.

In series [2] the test system is 129/Sv blastocysts. Description: De novo derivation of new ES cells from blastocysts. The procedure:
De Novo Derivation of New ES Cells With Gö6983. Blastocysts from 6-week-old female 12952/SvPasCrl (129/Sv) strain mice (Charles River Laboratory, Wilmington, Mass.) were isolated at 3.5 day post-coitum. Isolated blasotocysts were plated on gelatin-coated plastic in medium containing Gö6983 and FBS and without LIF. To obtain ES cell colonies, blastocyst outgrowths were disaggregated with trypsin and replated on gelatin-coated wells with Gö6983 and FBS. ES cell colonies were expanded by replating with Gö6983 at clonal or higher density. For in vitro analysis, cells were differentiated following the same protocol described herein. After six passages with Gö6983-condition, chromosome numbers were checked by karyotyping, and injected in C57BL/6 blastocysts for chimera generation.

Series [3] relates to c-Myc. Put plainly: GSK-3β-mediated phosphorylation of c-Myc at T58. The note with it: Gö6983 alone.
The test system of series [4] is 129/Sv MEFs. Put plainly: Generation of iPS cells from MEFs. As to the method:
Generation of iPS Cells. iPSCs were derived using lentiviral vectors (STEMGENT), expressing four mouse transcription factors (Oct4, Sox2, Klf4 […] c-Myc) under the control of the doxycycline (Dox)-inducible tetO operator. 129/Sv MEFs were infected with viral mix following manufacturer's protocol. Twenty hours post-transduction, cells were reseeded in ES cell growth medium with either LIF or Gö6983 at a density of 5×10^4 cells per well of a 6-well plate and treated with Dox (2 μg/ml) for 48 hours. To determine the phenotype of the iPS colonies, expression of two pluripotency markers, Nanog and Rex-1, were analyzed. For further analysis, each visible iPS colony was manually picked, trypsinized, cells were re-plated at clonal and higher density in medium with Gö6983 and the expression of pluripotent markers were confirmed by RT-PCR and immunofluorescence. For chimera generation, cells from two different iPS clones were propagated at clonal density with Gö6983, expanded for four passages and were injected into blastocysts.

Series [5] has as its system Akt. Description: Akt phosphorylation in mESCs. As to the method: E14 ES Cell Cultures. Cells were grown in ES-IMDM media (Lonza, Walkersville, Md.) in a feeder-free condition. ES-IMDM was supplemented with 15% serum, 10^5 U/100 ml of LIF (ESGRO, Millipore, Calif.) and 0.0124% monothioglycerol (MTG; Sigma Aldrich). Cells were grown for 3-5 days with change of medium every day. For inducing differentiation in monolayer culture and to determine the effect of Gö6983 in preventing differentiation, E14 cells were cultured on gelatin-coated plastics for 8 days without LIF. Details of experiments performed at clonal-density are described herein. To maintain E14 cells with Gö6983, serum supplemented ES-IMDM was used in the presence of 5 μM Gö6983 and was passed after every 3-5 days. For all assays involving elucidation of different signaling mechanism responsible for maintenance of pluripotency, cells from a ˜70% confluent ES culture plate were washed two times with 1× phosphate-buffered saline (PBS), trypsinized and plated on a 6-well tissue culture plate and treated with or without LIF or Gö6983 or different inhibitors for ˜10 hours followed by preparation of protein lysates and RNA. The PKCζ knocked-down E14 cells that were generated in this study were maintained in serum supplemented ES-IMDM on gelatin-coated plates in the absence of Gö6983 or LIF or any other inhibitor and passed after 3-5 days. […]

Series [6] deals with ES cells. Description: Quantitative Clonal Assay (survival at clonal density). The note with it: ≦10 μM. The procedure:
Quantitative Clonal Assay. ES and iPS cells were dissociated into single cells using 0.05% trypsin/EDTA and 2-20 cells were plated on each well of a 96-well culture plate. The cells were cultured for 6-7 days, colonies were stained for Nanog, and the number of Nanog positive colonies was counted. […] This procedure was repeated for five consecutive passages (>30 days).

Take `COc1ccc2c(c1)c(C1=C(c3c[nH]c4ccccc34)C(=O)NC1=O)cn2CCCN(C)C` [Gö6983, 3-[1-[3-(dimethylamino)propyl]5-methoxy-1H-indol-3-yl]-4-(1H-indol-3-yl)-1H-pyrrole-2,5-dione]: the “maintenance of undifferentiated R1 ES cells” value in series [1] was “replaced the requirement of LIF and MEF”. In addition, in series [2] (cultured with Gö6983), the “propagation of Gö6983-derived ES cell lines at clonal density” value is “successfully propagated in an undifferentiated state”. Besides, in series [2] (embryoid bodies, differentiated on collagen IV), the “multilineage differentiation potential of established ES cell lines” value was “readily formed embryoid bodies and expressed lineage specific markers”. In addition, in series [2] (serum and Gö6983, without LIF and feeder cells, gelatin-coated plates), the “derivation of ES cell colonies from blastocyst outgrowths” value is “multiple ES cell colonies were obtained from 10 blastocysts”. Besides, the “GSK-3β-mediated phosphorylation of c-Myc at T58 residue” value in series [3] is recorded as “did not inhibit”. For the same molecule, in series [4] (FIG. 4B), the “efficiency of obtaining matured iPSC colonies compared to LIF” value is on record as “three fold higher”. Besides, the “time to appearance of ES cell-like iPSC colonies” value in series [4] (MEFs with Oct4, Sox2, KLF4, cMyc) is on record as 12 days. Moreover, in series [4] (colonies defined by Nanog and Rex-1, FIG. 4A), the “rate of obtaining iPSC colonies compared to LIF” value is reported as “significantly faster rate”. Moreover, the “propagation of iPSCs at clonal density” value in series [4] (with Gö6983) is “readily propagated at clonal density”. Moreover, in series [5], the Akt phosphorylation entry was “not associated with Akt phosphorylation”. The “loss in ES cell survival at clonal density” value in series [6] was “no significant loss”.
